Values of other authors in patent US7795226B2, “Control of radiation injury” (Biotempt B.V., priority 2006, dated 2010).

What was measured:
radiation exposure = details: in vivo; cited from earlier work
gamma-irradiated mice [1] = details: mouse, in vivo; cited from earlier work
gamma-irradiated mice [2] = details: cited from earlier work

**Q.** For `O=C(O)c1ccc(/C=C/S(=O)(=O)Cc2ccc(Cl)cc2)cc1` [ON-01210, 4-carboxystyrl-4-chlorobenzylsulfone], which “radiation protection activity (in words)” value (radiation exposure) is on record?
**A.** protective only if it is given pre-radiation exposure

**Q.** For `C[C@]12CCC(=O)C=C1CC[C@@H]1[C@@H]2CC[C@]2(C)C(=O)CC[C@@H]12` [androstenedione], which “protection against gamma-irradiation (in words)” value (gamma-irradiated mice [1]) is on record?
**A.** No protection was observed

**Q.** What does the source list for `O=c1c(-c2ccc(O)cc2)coc2cc(O)cc(O)c12` [genisteine]?
**A.** Dose reduction Factor (DRF) (gamma-irradiated mice [2]; best dose 200 mg/kg, 24 hours before irradiation): 1.16; radioprotection (in words) (gamma-irradiated mice [2]; given one hour prior to whole body irradiation): no radioprotection was observed
